Experimental data from the kinase profiling compilation of Christmann-Franck et al. (2016).

Tests used:
Assay in all cases: radiometric filter-binding kinase assay, Kinase HotSpot
Details in all cases: compound 0.5 µM; ATP 10 µM
TEK (human) = TEK (human) (UniProt Q02763)
STK25 (human) = STK25 (human) (UniProt O00506)
MELK (human) = MELK (human) (UniProt Q14680)
CSNK2A2 (human) = CSNK2A2 (human) (UniProt P19784)
DYRK1A (human) = DYRK1A (human) (UniProt Q13627)
EGFR (human) = EGFR (human) (UniProt P00533)
NTRK1 (human) = NTRK1 (human) (UniProt P04629)
OXSR1 (human) = OXSR1 (human) (UniProt O95747)
AKT3 (human) = AKT3 (human) (UniProt Q9Y243)
MYLK (human) = MYLK (human) (UniProt Q15746)
TLK2 (human) = TLK2 (human) (UniProt Q86UE8)
EPHA2 (human) = EPHA2 (human) (UniProt P29317)
WNK3 (human) = WNK3 (human) (UniProt Q9BYP7)
GRK7 (human) = GRK7 (human) (UniProt Q8WTQ7)
BRAF (human) = BRAF (human) (UniProt P15056)
CDK6 CCND3 (human) = CDK6 CCND3 (human) (UniProt P30281+Q00534)
Sequence of CDK6 CCND3 (human) (P30281 whole entry, looked up): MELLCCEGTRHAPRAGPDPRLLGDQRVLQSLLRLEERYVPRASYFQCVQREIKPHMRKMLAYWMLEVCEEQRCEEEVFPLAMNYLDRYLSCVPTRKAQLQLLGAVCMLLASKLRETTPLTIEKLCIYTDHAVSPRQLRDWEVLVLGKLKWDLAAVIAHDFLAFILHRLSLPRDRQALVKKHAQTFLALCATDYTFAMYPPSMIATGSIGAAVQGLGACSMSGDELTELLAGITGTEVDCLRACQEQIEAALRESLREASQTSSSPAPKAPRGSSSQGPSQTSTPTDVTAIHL
Sequence of CDK6 CCND3 (human) (Q00534 whole entry, looked up): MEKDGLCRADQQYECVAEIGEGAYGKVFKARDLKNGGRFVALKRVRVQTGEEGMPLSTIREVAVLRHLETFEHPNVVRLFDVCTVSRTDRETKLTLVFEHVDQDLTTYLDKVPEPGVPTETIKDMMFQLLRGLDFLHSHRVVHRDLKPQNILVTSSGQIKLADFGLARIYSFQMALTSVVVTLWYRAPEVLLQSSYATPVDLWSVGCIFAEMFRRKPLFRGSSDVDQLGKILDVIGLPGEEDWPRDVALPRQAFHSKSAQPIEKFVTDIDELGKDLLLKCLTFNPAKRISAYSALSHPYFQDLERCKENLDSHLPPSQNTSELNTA

[1] = tested on: ARAF (human), P10398 [Y301D/Y302D]
CDK6 CCND1 (human) = CDK6 CCND1 (human) (UniProt Q00534+P24385)
Sequence of CDK6 CCND1 (human) (P24385 whole entry, looked up): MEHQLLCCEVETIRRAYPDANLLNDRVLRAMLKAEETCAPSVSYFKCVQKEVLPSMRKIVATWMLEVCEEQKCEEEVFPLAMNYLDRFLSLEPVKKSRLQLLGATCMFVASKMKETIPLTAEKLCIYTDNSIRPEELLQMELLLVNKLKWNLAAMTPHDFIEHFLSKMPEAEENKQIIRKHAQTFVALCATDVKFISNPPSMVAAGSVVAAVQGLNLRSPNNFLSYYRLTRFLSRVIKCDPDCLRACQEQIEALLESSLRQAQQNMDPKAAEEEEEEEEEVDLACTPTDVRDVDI
Sequence of CDK6 CCND1 (human) (Q00534 whole entry, looked up): as the sequence (Q00534 whole entry, looked up) above

PAK7 (human) = PAK7 (human) (UniProt Q9P286)
Sequence of PAK7 (human) (Q9P286 whole entry, looked up): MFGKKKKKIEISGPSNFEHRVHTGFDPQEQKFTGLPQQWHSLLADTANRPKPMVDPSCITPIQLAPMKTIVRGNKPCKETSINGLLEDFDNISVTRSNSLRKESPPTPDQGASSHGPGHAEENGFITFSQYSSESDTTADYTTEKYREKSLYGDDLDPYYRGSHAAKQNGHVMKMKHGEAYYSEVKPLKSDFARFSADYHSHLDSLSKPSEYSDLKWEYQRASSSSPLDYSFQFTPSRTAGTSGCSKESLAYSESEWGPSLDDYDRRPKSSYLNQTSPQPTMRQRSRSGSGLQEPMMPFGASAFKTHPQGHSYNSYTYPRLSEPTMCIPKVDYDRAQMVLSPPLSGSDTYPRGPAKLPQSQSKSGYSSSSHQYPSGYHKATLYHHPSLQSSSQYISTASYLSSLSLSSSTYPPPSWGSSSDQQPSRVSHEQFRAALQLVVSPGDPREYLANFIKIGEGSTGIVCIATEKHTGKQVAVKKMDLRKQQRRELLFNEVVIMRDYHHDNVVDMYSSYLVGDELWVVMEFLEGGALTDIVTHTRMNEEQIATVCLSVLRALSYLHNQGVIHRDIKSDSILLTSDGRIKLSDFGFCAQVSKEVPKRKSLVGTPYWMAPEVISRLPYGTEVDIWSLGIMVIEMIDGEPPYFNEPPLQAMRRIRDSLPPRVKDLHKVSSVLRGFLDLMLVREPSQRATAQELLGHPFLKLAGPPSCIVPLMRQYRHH

DYRK3 (human) = DYRK3 (human) (UniProt O43781)
PIM1 (human) = PIM1 (human) (UniProt P11309)
CAMK1G (human) = CAMK1G (human) (UniProt Q96NX5)
HIPK3 (human) = HIPK3 (human) (UniProt Q9H422)
Sequence of HIPK3 (human) (Q9H422 whole entry, looked up): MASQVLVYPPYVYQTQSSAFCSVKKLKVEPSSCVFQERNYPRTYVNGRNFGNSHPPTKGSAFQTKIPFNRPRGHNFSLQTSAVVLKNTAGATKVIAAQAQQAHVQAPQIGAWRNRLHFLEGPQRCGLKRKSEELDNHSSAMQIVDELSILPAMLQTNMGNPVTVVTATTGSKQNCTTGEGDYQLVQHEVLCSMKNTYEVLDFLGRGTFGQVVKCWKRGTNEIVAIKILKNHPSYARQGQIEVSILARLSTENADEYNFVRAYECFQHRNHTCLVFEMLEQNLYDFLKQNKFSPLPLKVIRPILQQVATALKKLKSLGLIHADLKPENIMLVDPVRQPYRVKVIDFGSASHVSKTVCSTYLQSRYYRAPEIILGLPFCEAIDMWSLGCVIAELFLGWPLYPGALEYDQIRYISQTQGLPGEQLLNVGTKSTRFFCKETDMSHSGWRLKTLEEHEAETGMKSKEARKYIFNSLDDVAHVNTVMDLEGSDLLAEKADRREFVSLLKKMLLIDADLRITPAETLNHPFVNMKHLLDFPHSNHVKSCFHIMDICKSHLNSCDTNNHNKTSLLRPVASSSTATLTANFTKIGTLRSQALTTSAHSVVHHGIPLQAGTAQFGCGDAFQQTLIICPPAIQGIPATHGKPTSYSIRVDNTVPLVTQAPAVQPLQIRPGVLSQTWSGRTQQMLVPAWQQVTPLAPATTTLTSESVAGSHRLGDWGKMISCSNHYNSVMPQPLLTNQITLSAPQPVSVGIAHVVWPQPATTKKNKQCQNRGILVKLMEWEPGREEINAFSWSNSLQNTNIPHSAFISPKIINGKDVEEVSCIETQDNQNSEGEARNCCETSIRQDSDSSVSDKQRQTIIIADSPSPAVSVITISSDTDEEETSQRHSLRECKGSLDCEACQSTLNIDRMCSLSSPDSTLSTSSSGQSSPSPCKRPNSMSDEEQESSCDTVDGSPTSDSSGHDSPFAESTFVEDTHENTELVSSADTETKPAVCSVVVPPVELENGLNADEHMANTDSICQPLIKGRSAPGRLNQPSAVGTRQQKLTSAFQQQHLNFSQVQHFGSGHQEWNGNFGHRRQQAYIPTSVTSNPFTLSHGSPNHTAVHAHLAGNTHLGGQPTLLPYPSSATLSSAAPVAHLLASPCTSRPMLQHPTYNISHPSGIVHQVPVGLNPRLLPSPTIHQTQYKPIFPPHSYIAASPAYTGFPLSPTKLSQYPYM

AURKA (human) = AURKA (human) (UniProt O14965)
VRK1 (human) = VRK1 (human) (UniProt Q99986)
STK38 (human) = STK38 (human) (UniProt Q15208)
Sequence of STK38 (human) (Q15208 whole entry, looked up): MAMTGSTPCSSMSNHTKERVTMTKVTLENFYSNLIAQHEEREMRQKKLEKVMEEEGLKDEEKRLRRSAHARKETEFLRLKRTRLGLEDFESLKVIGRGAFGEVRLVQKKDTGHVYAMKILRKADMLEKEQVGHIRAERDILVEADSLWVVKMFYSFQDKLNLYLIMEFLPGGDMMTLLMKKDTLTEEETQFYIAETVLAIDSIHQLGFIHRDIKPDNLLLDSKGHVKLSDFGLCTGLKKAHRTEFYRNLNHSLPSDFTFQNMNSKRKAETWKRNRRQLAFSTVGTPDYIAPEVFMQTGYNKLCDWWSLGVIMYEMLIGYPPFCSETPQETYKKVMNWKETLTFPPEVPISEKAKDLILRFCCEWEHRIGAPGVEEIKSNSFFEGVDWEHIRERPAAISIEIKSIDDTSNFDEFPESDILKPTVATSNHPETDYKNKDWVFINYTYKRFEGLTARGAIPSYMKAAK

PDGFRB (human) = PDGFRB (human) (UniProt P09619)
PAK6 (human) = PAK6 (human) (UniProt Q9NQU5)
CHEK2 (human) = CHEK2 (human) (UniProt O96017)
KDR (human) = KDR (human) (UniProt P35968)
EPHA6 (human) = EPHA6 (human) (UniProt Q9UF33)
STK10 (human) = STK10 (human) (UniProt O94804)
SGK3 (human) = SGK3 (human) (UniProt Q96BR1)
Sequence of SGK3 (human) (Q96BR1 whole entry, looked up): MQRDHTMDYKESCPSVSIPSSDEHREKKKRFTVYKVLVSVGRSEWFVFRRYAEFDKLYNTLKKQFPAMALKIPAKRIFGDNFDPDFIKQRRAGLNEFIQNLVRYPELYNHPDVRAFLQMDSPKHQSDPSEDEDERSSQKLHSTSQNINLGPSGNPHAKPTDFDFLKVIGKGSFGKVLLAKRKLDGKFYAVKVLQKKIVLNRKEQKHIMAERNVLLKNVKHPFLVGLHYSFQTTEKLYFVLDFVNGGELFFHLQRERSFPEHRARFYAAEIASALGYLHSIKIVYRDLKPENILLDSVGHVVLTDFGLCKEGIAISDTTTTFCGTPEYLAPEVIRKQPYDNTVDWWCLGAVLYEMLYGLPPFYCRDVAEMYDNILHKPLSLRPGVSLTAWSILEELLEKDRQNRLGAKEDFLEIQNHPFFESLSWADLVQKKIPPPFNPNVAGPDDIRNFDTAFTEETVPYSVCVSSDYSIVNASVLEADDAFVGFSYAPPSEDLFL

AURKC (human) = AURKC (human) (UniProt Q9UQB9)
CLK2 (human) = CLK2 (human) (UniProt P49760)
PIM2 (human) = PIM2 (human) (UniProt Q9P1W9)
MKNK2 (human) = MKNK2 (human) (UniProt Q9HBH9)
MYO3B (human) = MYO3B (human) (UniProt Q8WXR4)
ULK3 (human) = ULK3 (human) (UniProt Q6PHR2)
PRKACG (human) = PRKACG (human) (UniProt P22612)
ABL1 (human) = ABL1 (human) (UniProt P00519)
Sequence of ABL1 (human) (P00519 whole entry, looked up): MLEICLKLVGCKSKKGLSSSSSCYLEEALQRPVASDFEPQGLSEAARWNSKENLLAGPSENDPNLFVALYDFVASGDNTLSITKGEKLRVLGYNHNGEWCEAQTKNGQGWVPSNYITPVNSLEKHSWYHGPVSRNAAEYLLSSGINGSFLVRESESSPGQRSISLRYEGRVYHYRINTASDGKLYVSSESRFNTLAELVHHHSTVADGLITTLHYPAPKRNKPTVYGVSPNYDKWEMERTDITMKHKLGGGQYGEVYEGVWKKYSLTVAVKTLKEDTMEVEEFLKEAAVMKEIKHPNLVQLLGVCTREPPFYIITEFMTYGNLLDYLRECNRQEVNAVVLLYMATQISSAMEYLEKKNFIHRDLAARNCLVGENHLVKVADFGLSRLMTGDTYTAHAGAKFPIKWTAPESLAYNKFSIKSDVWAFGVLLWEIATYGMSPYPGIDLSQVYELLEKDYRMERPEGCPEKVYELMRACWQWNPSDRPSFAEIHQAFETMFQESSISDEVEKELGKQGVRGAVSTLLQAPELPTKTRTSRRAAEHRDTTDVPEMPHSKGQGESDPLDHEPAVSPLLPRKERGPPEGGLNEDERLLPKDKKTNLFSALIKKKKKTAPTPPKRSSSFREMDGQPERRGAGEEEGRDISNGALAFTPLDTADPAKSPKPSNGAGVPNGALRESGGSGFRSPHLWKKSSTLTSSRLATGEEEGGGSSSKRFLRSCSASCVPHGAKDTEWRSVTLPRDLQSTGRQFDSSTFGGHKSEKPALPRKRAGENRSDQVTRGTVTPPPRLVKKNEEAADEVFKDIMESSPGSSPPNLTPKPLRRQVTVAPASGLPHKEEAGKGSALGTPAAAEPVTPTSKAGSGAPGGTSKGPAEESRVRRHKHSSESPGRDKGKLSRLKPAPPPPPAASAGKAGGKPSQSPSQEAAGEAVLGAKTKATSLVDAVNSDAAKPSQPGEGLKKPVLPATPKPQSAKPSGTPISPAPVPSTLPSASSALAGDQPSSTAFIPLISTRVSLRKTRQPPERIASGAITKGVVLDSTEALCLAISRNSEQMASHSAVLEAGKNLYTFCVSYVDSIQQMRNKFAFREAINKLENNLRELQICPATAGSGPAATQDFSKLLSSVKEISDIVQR

CC(C)[C@H](CO)Nc1nc(Nc2cccc(Cl)c2)c2ncn(C(C)C)c2n1
residual activity (TEK (human)): 93.8% | residual activity (STK25 (human)): 116% | residual activity (MELK (human)): 69.5% | residual activity (CSNK2A2 (human)): 93.2% | residual activity (DYRK1A (human)): 65.4% | residual activity (EGFR (human)): 94.2% | residual activity (NTRK1 (human)): 67.3% | residual activity (OXSR1 (human)): 94.4% | residual activity (AKT3 (human)): 102% | residual activity (MYLK (human)): 95.1% | residual activity (TLK2 (human)): 94.7% | residual activity (EPHA2 (human)): 89.5% | residual activity (WNK3 (human)): 89.1% | residual activity (GRK7 (human)): 88.8% | residual activity (BRAF (human)): 92.7% | residual activity (CDK6 CCND3 (human)): 71% | residual activity [1]: 96.5% | residual activity (CDK6 CCND1 (human)): 67.5% | residual activity (PAK7 (human)): 76.8% | residual activity (DYRK3 (human)): 105% | residual activity (PIM1 (human)): 104% | residual activity (CAMK1G (human)): 94.9% | residual activity (HIPK3 (human)): 102% | residual activity (AURKA (human)): 80.6% | residual activity (VRK1 (human)): 99.5% | residual activity (STK38 (human)): 90.5% | residual activity (PDGFRB (human)): 106% | residual activity (PAK6 (human)): 111% | residual activity (CHEK2 (human)): 88.1% | residual activity (KDR (human)): 95% | residual activity (EPHA6 (human)): 93.8% | residual activity (STK10 (human)): 81.8% | residual activity (SGK3 (human)): 97.6% | residual activity (AURKC (human)): 93.2% | residual activity (CLK2 (human)): 21.9% | residual activity (PIM2 (human)): 105% | residual activity (MKNK2 (human)): 87.5% | residual activity (MYO3B (human)): 94.2% | residual activity (ULK3 (human)): 59.6% | residual activity (PRKACG (human)): 113% | residual activity (ABL1 (human)): 75.6%

Cc1ccc(NC(=O)c2ccc(CN3CCN(C)CC3)cc2)cc1Nc1nc(-c2cccnc2)cs1
residual activity (TEK (human)): 97.2% | residual activity (STK25 (human)): 95.5% | residual activity (MELK (human)): 84.8% | residual activity (CSNK2A2 (human)): 86.7% | residual activity (DYRK1A (human)): 106% | residual activity (EGFR (human)): 99.6% | residual activity (NTRK1 (human)): 97.1% | residual activity (OXSR1 (human)): 95.6% | residual activity (AKT3 (human)): 102% | residual activity (MYLK (human)): 96.2% | residual activity (TLK2 (human)): 94.5% | residual activity (EPHA2 (human)): 91.2% | residual activity (WNK3 (human)): 99.9% | residual activity (GRK7 (human)): 104% | residual activity (BRAF (human)): 92.3% | residual activity (CDK6 CCND3 (human)): 90.5% | residual activity [1]: 102% | residual activity (CDK6 CCND1 (human)): 98% | residual activity (PAK7 (human)): 92% | residual activity (DYRK3 (human)): 108% | residual activity (PIM1 (human)): 86.4% | residual activity (CAMK1G (human)): 106% | residual activity (HIPK3 (human)): 101% | residual activity (AURKA (human)): 105% | residual activity (VRK1 (human)): 97.4% | residual activity (STK38 (human)): 95.9% | residual activity (PDGFRB (human)): 17.3% | residual activity (PAK6 (human)): 101% | residual activity (CHEK2 (human)): 101% | residual activity (KDR (human)): 106% | residual activity (EPHA6 (human)): 98.2% | residual activity (STK10 (human)): 93.8% | residual activity (SGK3 (human)): 95.6% | residual activity (AURKC (human)): 112% | residual activity (CLK2 (human)): 86% | residual activity (PIM2 (human)): 118% | residual activity (MKNK2 (human)): 103% | residual activity (MYO3B (human)): 82.6% | residual activity (ULK3 (human)): 104% | residual activity (PRKACG (human)): 110% | residual activity (ABL1 (human)): 49.8%
